Values quoted from earlier work, collected in patent US4280953A, “Glycosylated analogs of somatostatin” (The Salk Institute for Biological Studies, priority 1979, dated 1981).
Non-standard residues stand in square brackets, D forms with d.

Test system: secretion of insulin, glucogon pancreatic polypeptide and gastrin
Settings: human subjects, subcutaneous administration

Substance: H-CFF[dW]KTFC-OH (cysteine pairing not given here)
- inhibitory activity on the secretion of insulin, glucogon pancreatic polypeptide and gastrin: prolonged inhibitory activity
